The values that follow come from patent US20250289817A1, “SEROTONIN RECEPTOR MODULATORS AND METHODS OF MAKING AND USING THE SAME” (Kuleon LLC, priority 2022, published 2025).

For experiment [1], the target named is T1, 5-HT2A (Homo sapiens, UniProt P28223).
T1 construct: expressed in transfected cells; host or cells: HEK293T
The experiment is described as follows: Gq activation via Gq/γ1 dissociation BRET, 5-HT2A. Type of experiment: cell-based. The note with it: HEK293T cells; for pEC50: Gq dissociation BRET2, 1 hour at 37° C.; for Emax: HEK-293T, Gq dissociation BRET2, normalized to % 5-HT stimulation. An excerpt:
(§1) To measure 5-HT2 receptor-mediated Gq activation via Gq/y1 dissociation as measured by Bioluminescence Resonance Energy Transfer (BRET) (McCorvy JD, Wacker D, Wang S, Agegnehu B, Liu J, Lansu K, Tribo A R, Olsen R HJ, Che T, Jin J, Roth B L. Structural determinants of 5-HT2B receptor activation and biased agonism. Nat Struct Mo/ Biol. 2018; 25(9): 787-96), HEK293T cells were sub-cultured in Dulbecco's Modified Eagle Medium (DMEM) supplemented with 10% dialyzed fetal bovine serum (FBS) and were co-transfected in a 1:1:1:1 ratio with Rluc8-fused human Gaq (Gaq-Rluc8), a GFP2-fused to the C-terminus of human Gy1(Gy1-GFP2), human G131, and 5-HT2 receptor using TransiT-2020. After at least 18-24 hours, transfected cells were plated in poly-lysine coated 96-well white clear bottom cell culture plates in DMEM containing 1% dialyzed FBS at a density of 25,000-40,000 cells in 200 μL per well and incubated overnight. The following day, medium was decanted, and cells were washed with 60 μL of drug buffer (1×HBSS, 20 mM HEPES, pH 7.4), then 60 μL of drug buffer was added per well. Cells were pre-incubated at in a humidified atmosphere at 37° C. before receiving drug stimulation. Drug stimulation utilized 30 μL addition of drug (3×) diluted in McCorvy buffer (1×HBSS, 20 mM HEPES, pH 7.4, supplemented with 0.3% BSA fatty acid free, 0.03% ascorbic acid) and plates were incubated at for 1 hour at 37° C. Substrate addition occurred 15 minutes before reading and utilized 10 μL of the Rluc substrate coelenterazine 400a for Gq dissociation BRET^2 (Prolume/Nanolight, 5 μM final concentration). Plates were read for luminescence at 400 nm and fluorescent GFP2 emission at 510 nm at 1 second per well using a Mithras LB940 multimode microplate reader (e.g. one provided by Berthold). The BRET ratios of fluorescence/luminescence were calculated per well and were plotted as a function of drug concentration using Graphpad Prism 8 (Graphpad Software Inc., San Diego, CA). Data were normalized to % 5-HT stimulation and analyzed using nonlinear regression “log(agonist) vs. response” to yield Emax and EC50 parameter estimates. Results are shown in Table 8, where A=<10; B=10 to <100; C=100 to 1000 and D=>1000; +++=>70%; ++=50 to 70%; and +=<50%; NC=not calculated. […] Hallucinogenic (“Hall”) or non-hallucinogenic (“N-Hall”) plastogenic effect is predicted for compounds based on the level 5-HT2A agonist efficacy.
Background: Bioluminescence resonance energy transfer reports proximity on the nanometre scale.

The next experiment has as its target T2, 5-HT2B (Homo sapiens, UniProt P41595).
T2 construct: expressed in transfected cells; host or cells: HEK293T
The experiment is described as follows: Gq activation via Gq/γ1 dissociation BRET, 5-HT2B. Type of experiment: cell-based. Particulars: HEK293T cells, AT* = data suggests antagonistic effect at 5-HT2B (footnote); for Emax: HEK-293T, Gq dissociation BRET2, normalized to % 5-HT stimulation.
Description: as §1

For experiment [2], the target named is T3, 5-HT2C (Homo sapiens, UniProt P28335).
T3 sequence (P28335 33-458): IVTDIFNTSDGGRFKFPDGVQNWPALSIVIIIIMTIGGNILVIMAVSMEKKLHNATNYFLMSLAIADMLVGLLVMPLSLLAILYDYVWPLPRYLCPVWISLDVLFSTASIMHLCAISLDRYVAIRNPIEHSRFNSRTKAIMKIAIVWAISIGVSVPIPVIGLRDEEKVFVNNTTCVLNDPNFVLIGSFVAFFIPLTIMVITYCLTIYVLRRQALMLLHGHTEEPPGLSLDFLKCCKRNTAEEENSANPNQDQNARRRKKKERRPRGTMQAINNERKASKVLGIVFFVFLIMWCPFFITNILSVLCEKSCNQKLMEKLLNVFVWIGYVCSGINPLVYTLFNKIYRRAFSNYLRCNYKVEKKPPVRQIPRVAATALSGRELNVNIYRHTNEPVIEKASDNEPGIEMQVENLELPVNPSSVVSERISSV
The experiment can be described thus: Gq activation via Gq/γ1 dissociation BRET, 5-HT2C. Format: cell-based. Also noted: expressed in transfected cells; host or cells: HEK293T. Particulars: for Emax: HEK-293T, read-out: 5-HT2C Emax (%).
Description: as §1

For experiment [3], the target named is T3, 5-HT2C. The experiment is described as follows: Gq signaling bias for 5-HT2C (Gq-coupled versus B-arrestin signaling). Type of experiment: cell-based. The note with it: primary signaling for 5-HT2C via Gq-coupled mechanism compared to B-arrestin.
Description: as §1

Experiment [4] concerns the target T1, 5-HT2A. The experiment is described as follows: Predicted hallucinogenic or non-hallucinogenic plastogenic effect based on 5-HT2A agonist efficacy. Particulars: hallucinogenic (Hall) or non-hallucinogenic (N-Hall) plastogenic effect predicted from level of 5-HT2A agonist efficacy.
Description: as §1

Where [5] appears, read: Gq dissociation BRET2, 1 hour at 37° C.

pEC50: −log10 of the molar value.

The pEC50 is the negative decadic logarithm of the EC50, by convention in mol/L. High values mean a small EC50, low ones a large EC50. As a reminder, the Emax is the size of the effect at its maximum, as opposed to the concentration needed.

T1 sequence (P28223 whole entry): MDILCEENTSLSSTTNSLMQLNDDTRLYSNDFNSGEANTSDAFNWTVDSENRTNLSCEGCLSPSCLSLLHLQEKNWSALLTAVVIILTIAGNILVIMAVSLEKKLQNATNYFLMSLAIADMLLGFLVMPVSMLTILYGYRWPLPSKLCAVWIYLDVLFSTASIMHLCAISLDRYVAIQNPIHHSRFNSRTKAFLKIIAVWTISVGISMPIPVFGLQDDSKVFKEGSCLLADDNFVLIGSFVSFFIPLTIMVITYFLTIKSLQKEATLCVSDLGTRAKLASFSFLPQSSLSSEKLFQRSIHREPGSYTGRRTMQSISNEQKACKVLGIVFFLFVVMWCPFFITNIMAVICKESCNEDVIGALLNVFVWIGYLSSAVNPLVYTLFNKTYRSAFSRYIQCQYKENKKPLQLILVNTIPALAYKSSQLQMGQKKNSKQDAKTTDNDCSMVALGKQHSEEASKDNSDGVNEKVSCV
T2 sequence (P41595 whole entry): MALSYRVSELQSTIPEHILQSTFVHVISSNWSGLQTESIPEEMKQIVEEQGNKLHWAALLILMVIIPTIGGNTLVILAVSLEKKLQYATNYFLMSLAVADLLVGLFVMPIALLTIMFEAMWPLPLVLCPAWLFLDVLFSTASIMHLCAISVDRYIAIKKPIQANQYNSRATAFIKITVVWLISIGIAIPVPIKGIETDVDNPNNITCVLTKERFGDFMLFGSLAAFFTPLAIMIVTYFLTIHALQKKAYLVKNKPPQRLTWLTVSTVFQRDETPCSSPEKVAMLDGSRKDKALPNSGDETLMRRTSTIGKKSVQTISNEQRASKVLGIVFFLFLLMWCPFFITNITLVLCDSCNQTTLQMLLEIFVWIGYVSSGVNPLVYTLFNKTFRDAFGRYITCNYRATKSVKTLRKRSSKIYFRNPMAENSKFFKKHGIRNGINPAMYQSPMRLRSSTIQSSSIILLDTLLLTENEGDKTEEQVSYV

For the molecule `CN1CC=C(c2csc3cc(F)ccc23)C1`, on 5-HT2A [1], the pEC50 is 6.00 to 7.00 and the maximum response (Emax) is < 50%. The “5-HT2B EC50 (nM)” value at 5-HT2B (setting [5]) was “AT*”. At 5-HT2C [2], the negative logarithm of the EC50 (pEC50) was 7.00 to 8.00 and the Emax lay within 50 to 70%.

In the case of `CN1CC=C(c2csc3ccccc23)C1`, the pEC50 at 5-HT2A [1] is 7.00 to 8.00; at 5-HT2B (setting [5]), < 6.00; on 5-HT2C [2], > 8.00. For the same molecule, the Emax was 50 to 70% at 5-HT2A [1], < 50% on 5-HT2B and > 70% on 5-HT2C [2].

Take `C1=C(c2c[nH]c3ncccc23)CNC1`: the Emax at 5-HT2A [1], at 5-HT2B and on 5-HT2C [2] was < 50% each time. Also, at 5-HT2C [3], the “Gq signaling bias?” value is on record as “No”. In addition, the “Hall or N-Hall?” value on 5-HT2A [4] was “N-Hall”.

As for `CN1CC(c2csc3ccccc23)C1.Cl`, the negative logarithm of the EC50 (pEC50) on 5-HT2A [1] was < 6.00; at 5-HT2B (setting [5]), 6.00 to 7.00; on 5-HT2C [2], 7.00 to 8.00. For the same molecule, the Emax was < 50% on 5-HT2A [1], < 50% on 5-HT2B and > 70% at 5-HT2C [2]. At 5-HT2C [3], the “Gq signaling bias?” value is listed as “Yes”. Moreover, the “Hall or N-Hall?” value on 5-HT2A [4] is on record as “N-Hall”.

As for `Fc1cnc2[nH]cc(C3=CCNC3)c2c1`, the negative logarithm of the EC50 (pEC50) is 6.00 to 7.00 at 5-HT2A [1], 6.00 to 7.00 at 5-HT2B (setting [5]) and 7.00 to 8.00 on 5-HT2C [2]. Further, the Emax at 5-HT2A [1], at 5-HT2B and at 5-HT2C [2] was > 70% each time. For the same molecule, the “Gq signaling bias?” value at 5-HT2C [3] was “No”. The “Hall or N-Hall?” value at 5-HT2A [4] is reported as “Hall”.

Consider `Cl.c1ccc2c(C3CCNC3)csc2c1` (stereo not shown), for which the values for the negative logarithm of the EC50 (pEC50) at 5-HT2A [1] and on 5-HT2C [2] were 6.00 to 7.00 and 7.00 to 8.00, respectively. The figures for the Emax on 5-HT2A [1], at 5-HT2B and at 5-HT2C [2] were 50 to 70%, < 50% and > 70%, respectively. Further, the “Gq signaling bias?” value at 5-HT2C [3] is listed as “Yes”. On 5-HT2A [4], the “Hall or N-Hall?” value is “N-Hall”.

With `C1=C(c2csc3ccccc23)CNC1`, the negative-log EC50 (pEC50) at 5-HT2A [1] was 7.00 to 8.00; at 5-HT2C [2], > 8.00. The Emax on 5-HT2A [1] was > 70%; at 5-HT2B, < 50%; at 5-HT2C [2], > 70%. Also, at 5-HT2C [3], the “Gq signaling bias?” value is given as “Yes”. On 5-HT2A [4], the “Hall or N-Hall?” value was “Hall”.
